This is an account of results in patent US6838481B1, “Skin whitener” (LG Household & Health Care Ltd., priority 1998, dated 2005).

Molecules are shown by their SMILES.

Data set [1] has as its system B-16 mouse melanoma cells. The experiment in a line: Melanin formation inhibiting effects of EL-1 at the cellular level. Particulars: for Melanin formation amount: cultured 3 days, repetition number = 3; for Inhibition ratio (%): melanin formation relative to control; for Cell toxicity: final conc. 10 μg/ml. Format: cell-based. How it is done: The whitening effect was tested at the cellular level by adding EL-1 obtained from the above EXAMPLES 1 to 7 to a cultured solution of B-16 mouse melanoma cells (Lotan R., Lotan D. Cancer Res. 40:3345-3350, 1980) as follows.
The EL-1 obtained in EXAMPLES 1 to 7 was added to a culture solution of B-16 mouse melanoma cells so that the final concentrations become 1 μg/ml, 5 μg/ml and 50 μg/ml respectively, and they were cultured for 3 days. After trypsin was added to the cells and the solution was removed from the culture container and centrifuged, melanin was extracted. 1 ml of sodium hydroxide solution (1 N concentration) was added to the extracted melanin and boiled for about 10 minutes to dissolve the melanin. The test was carried out in a way whereby the formed melanin amount was represented in absorbance per unit cell number, expressed as A400/10^6 cells by measuring the absorbance at 400 nm. After repeating this test 3 times, the melanin formation amount relative to the control was calculated as an inhibition ratio (%) using the average values.

Data set [2] concerns B-16 mouse melanoma cells. Described as above. Format: cell-based. Particulars: concentration of 50 μg/ml.

As for `C=C1CCC2C(/C=C(\C)C(=O)C3(OC(C)=O)CC(C)C(OC(=O)c4ccccc4)C3C1OC(C)=O)C2(C)C` (stereo not drawn) [EL-1, 5,15-diacetyl-3-benzoyllathyrol], the results for the Melanin formation amount in data set [1] (final conc. 1 μg/ml), in data set [1] (final conc. 5 μg/ml) and in data set [1] (final conc. 50 μg/ml) were 0.032 ± 0.001 A400/10^6 cells, 0.019 ± 0.003 A400/10^6 cells and 0.007 ± 0.001 A400/10^6 cells, respectively. The “Inhibition ratio (%)” value is reported as 28% in data set [1] (final conc. 1 μg/ml), 57% in data set [1] (final conc. 5 μg/ml) and 85% in data set [1] (final conc. 50 μg/ml). For the same compound, in data set [1] (mouse B-16 melanoma cells treated), the “Melanin synthesis inhibiting effect” value is “very strong melanin synthesis inhibiting effect”. The Cell toxicity entry in data set [2] is recorded as “does not show cell toxicity”.
Regarding `Oc1ccc(O)cc1` [Hydroquinone, reference compound], in data set [1] (final conc. 1 μg/ml), the Melanin formation amount was determined as 0.025 ± 0.002 A400/10^6 cells and the “Inhibition ratio (%)” value is reported as 43%. Also, in data set [1], the Cell toxicity entry was “Cell extinction”. For the same compound, the Cell toxicity result in data set [1] (listed as hydroquinone) is given as “high cell toxicity”.
